Structures are written as SMILES. “Also recorded” adds a separate entry of the source. Where two headings read alike, the source gives them in different places.

Series [1] relates to CaCo-2 cells. Kind of series: Antiproliferative effect in CaCo-2 cells, neutral red uptake (NRU) test. Type of series: cell-based, human. The settings on record: for Inhibition of cancer cell proliferation: 0–50 µg/mL, 72 h; for IC50: Homo sapiens.
Method: Firstly, the antiproliferative effect of five sesquiterpenes CAR, CAO, HUM, NER, VAL was tested in CaCo-2 cancer cells. The cells were incubated with individual sesquiterpenes in concentrations 0–50 µg/mL for 72 h. After incubation, a number of viable cells was assayed using a NRU test and IC50 values were calculated.
CaCo-2 cancer cells were incubated with DOX alone (concentrations 0.25, 0.5, 1, 2, 4 µM), with individual sesquiterpenes alone (concentrations 6.125, 12.5, 25, 50 µg/mL) and with DOX (concentrations 0.25, 0.5, 1, 2 µM) in combinations with each sesquiterpene (concentrations 6.125, 12.5, 25, 50 µg/mL). […] After 72-h incubation, the number of viable cells was assayed using NRU.
The human epithelial colorectal adenocarcinoma line CaCo-2 was purchased from ATCC (supplier for Czech Republic: LGC Standards, Lomianki, Poland). […] The CaCo-2 cells were cultured in MEM supplemented with 10% heat-inactivated FBS, 1% non-essential amino acid, 1.5% L-glutamine solution and 0.5% penicillin/streptomycin. Cells were grown in T-75 cm^2 culture flasks in a humidified atmosphere containing 5% CO2 at 37 °C.
Pure commercially available sesquiterpenes and DOX were pre-dissolved in DMSO or in pure ethanol. The concentration of organic solvent in medium was 0.1%. The cells were exposed to various concentrations of the tested compounds in culture medium. The cells cultured in medium with pure DMSO or ethanol without tested compounds were used as control samples. […] The number of viable CaCo-2 cells was assayed using the neutral red uptake test after 72 h expositions.
Data are presented as means ± S.D. of a given number of experiments. Statistical significance (evaluated using a one-way ANOVA) was acceptable to a level of p < 0.05. The concentration inducing a 50% decrease of cell viability as compared to control (IC50) was calculated using GraphPad Prism 6.0 nonlinear regression.
Series [2] relates to CaCo-2 cells. Kind of series: Combination of DOX and sesquiterpenes in CaCo-2 cells, NRU test, combination indexes (CalcuSyn). Type of series: cell-based, human. The conditions noted are these: CaCo-2, 72 h; for Combined effect with DOX (combination index, CI): NRU, CalcuSyn. On the procedure: Concentrations of DOX and sesquiterpenes were selected according to the Chou-Talalay Method. After 72-h incubation, the number of viable cells was assayed using NRU. […] When DOX was used in combinations with individual sesquiterpenes, a significant increase of DOX efficacy was observed.
With the aim of evaluating and quantifying the combined effect of DOX and sesquiterpenes, combination indexes were calculated using CalcuSyn (ver. 1.1, Biosoft, Cambridge, UK); the plot of combination indexes (CI) vs. fractions of dead cells (Fa) is presented in Figure 5. […] It is important to emphasize that synergy of anticancer agents at high effect levels (Fa > 0.8) is more relevant to therapy than at low levels.
Figure 5 Combination indexes (CI) of DOX and sesquiterpenes in dependence on fraction of affected CaCo-2 cells (Fa). Incubations lasted for 72 h. Data were calculated using CalcuSyn software.
The cells were cultured in 96‑well plates. After 72 h exposure, the medium was removed and 100 µL of neutral red-containing medium was added into each well, at which time the plates were incubated for an additional 3 h at 37 °C. The cells were washed with 100 µL of PBS, then fixed in a solution of 0.5% formaldehyde/1% calcium chloride for 15 min. The neutral red dye was extracted from the viable cells with a solvent (50% ethanol/1% acetic acid) by shaking for 30 min at room temperature. The absorbance of solubilized dye was measured using a spectrophotometer (Infinite M200, Tecan, Männedorf, Switzerland) at 540 nm. Each sample was assayed in 6 parallels and 3 independent experiments were performed. The viabilities of the treated cells were expressed as a percentage of untreated controls (100%). The effect of sesquiterpenes on DOX efficacy was evaluated using CalcuSyn software.

Series [3] has as its system CaCo-2 cells. Put plainly: Intracellular ROS formation (H2DCF-DA) in CaCo-2 cells. The format is cell-based, human. The settings on record: for Effect on ROS formation, sesquiterpene alone: 10 µg/mL; for Effect of DOX + sesquiterpene on ROS formation compared with DOX alone: DOX 1 µM + sesquiterpene 10 µg/mL. From the text: (§1) To assess ROS generation in CaCo-2 cells or […], a measurement of 2′,7′-dichlorodihydrofluorescein-diacetate (H2DCF-DA) oxidation was used. This non-fluorescent reagent diffuses passively through the plasma membrane into the cell, where the acetate groups are cleaved by intracellular esterases. The compound can then be oxidized by ROS formed within the cell (particularly by hydroxyl radicals, •OH) to form fluorescent dichlorofluorescein (DCF), while the fluorescence intensity is proportional to the ROS level. CaCo-2 cells or hepatocytes (seeded in a 96-well plate at a density of 2500 cells/well) were washed by PBS buffer and loaded with 100 µL of the tested substances (individual sesquiterpenes, DOX alone, DOX + sesquiterpene combinations pre-dissolved in DMSO) in PBS buffer. After 12-h incubation, 100 µL of 5 μM H2DCF-DA were added. After another incubation of 30-min, fluorescence intensity was measured for 50 min at 37 °C using a microplate reader Tecan Infinite M200 at λex = 485 nm and λem = 525 nm. Cells treated with PBS only with pure DMSO (as a solvent) were used as control samples. The 3% H2O2 solution was used as a positive control.

Series [4] relates to CaCo-2 cells. Put plainly: DOX accumulation in CaCo-2 cells (UHPLC). The format is cell-based, human. The settings on record: 3 h; for Effect on intracellular DOX concentration: DOX 6 µM + sesquiterpene 10 or 50 µg/mL. The protocol: The effect of sesquiterpenes on DOX accumulation in cells was also studied. Concentrations of DOX within cells after a 3-h incubation of CaCo-2 cells, hepatocytes with DOX alone and DOX + sesquiterpene combinations were analyzed. […] On the other hand, the addition of all sesquiterpenes to DOX led to a concentration-dependent increase of DOX concentration within CaCo-2 cells. […] CAO (at concentration 50 µg/mL) was able to enhance the intracellular DOX concentration in CaCo-2 cells at a rate of 3.6-times.
The suspension of CaCo-2 cells or hepatocytes (600 µL; density 5000 cells/100 µL) per well was set to a 12-well plate. After 48 h, 600 µL of solutions in medium of the tested substances were added. The cells were treated with DOX (6 µM) alone, or in combination with individual sesquiterpenes (10 or 50 µg/mL) for 3 h. At the end of the experiment, the medium was removed and cells were washed with 500 µL of PBS. One hundred µL of lysing buffer (25 mM Tris, 150 mM NaCl, 1% Triton, pH 7.4) were then added, at which time the cells were lysed for 15 min, then mixed with 300 µL of ice-cold methanol and centrifuged (10,000× g, 10 min, 4 °C). The supernatant was filtered through a 0.22 µm filter and the filtrate was used for analysis.
DOX was detected on an Agilent 1290 Series UHPLC chromatographic system (Agilent, Santa Clara, CA, USA) equipped with a Zorbax C18 Eclipse Plus (2.1 × 50 mm, 1.8 μm) column with a 1290 Infinity inline filter (Agilent). The HPLC method used by was adapted to a UHPLC system: Isocratic elution of 1.0 mL/min by 0.1% formic acid in water and acetonitrile in ratio 76:24; 30 °C thermostated column compartment; fluorescence detection at λex = 480 nm and λem = 560 nm. Chemical standards were purchased from Toronto Research Chemicals (Toronto, ON, Canada).

Series [5] has as its system primary culture of rat hepatocytes. Put plainly: Viability of primary culture of rat hepatocytes, MTT test. The settings on record: 24 h; for Hepatotoxicity / viability of hepatocytes: sesquiterpene alone 0–50 µg/mL. Background: Formazan colour is commonly taken as a measure of viable cells.
Method: (§2) The toxicity of DOX alone as well as combinations of DOX and sesquiterpene was tested in primary culture of rat hepatocytes. […] The number of viable cells was measured after 24 h exposition of cells to various concentrations of the tested compounds.
The rat hepatocytes were obtained from rat liver by the two-step collagenase method. Briefly, the liver was perfused with salt solution (0.14 M NaCl, 5.0 mM KCl, 0.8 mM MgSO4) in Na^+/K^+ phosphate buffer (0.2 mM, pH 7.4) containing a calcium binding component (0.4 mM EGTA). […] The collagenase perfusion was proceeded for 5–6 min. After perfusion the liver was transferred to a medium containing BSA and the hepatocytes were released. The obtained suspension was filtered through a nylon mesh and centrifuged at 40× g for 5 min at 4 °C. The pellet was re-suspended in chilled buffer and the washing procedure was twice repeated. Finally, three million viable (75%–85%) cells in 3 mL of culture medium ISOM (1:1 mixture of Ham F12 and Williams’ E) were placed into 96-well plastic dishes. The fetal calf serum was added in the culture medium (5%). Cultures were maintained without the tested compounds for 4 h at 37 °C in a humid atmosphere of air and 5% CO2.
Pure commercially available sesquiterpenes and DOX were pre-dissolved in DMSO or in pure ethanol. The concentration of organic solvent in medium was 0.1%. The cells were exposed to various concentrations of the tested compounds in culture medium. The cells cultured in medium with pure DMSO or ethanol without tested compounds were used as control samples. […] The viability of the hepatocytes was tested using a MTT assay after 24 h expositions.
(§3) The mitochondria of living cells are able to reduce yellow MTT (3-(4,5-dimethylthiazol-2-yl)-2,5-diphenyltetrazolium bromide) to purple formazan. The cells were cultured in 96-well plates. After 24 h exposure, 25 µL of MTT solution (3 mg of MTT in 1 mL of PBS) were added to each well. The plates were incubated for an additional 2 h at 37 °C, at which time the medium was removed and the formed formazan was dissolved in 50 µL of 0.08 M HCl in isopropanol by 30 min shaking. The absorbance in each well was read at 570 and 690 nm using a spectrophotometer (Tecan Infinite M200).
Series [6] has the same test system. Put plainly: Effect of sesquiterpenes on DOX toxicity in hepatocytes, MTT test. The conditions noted are these: 24 h; for Effect on DOX toxicity in hepatocytes at 0.5 µM DOX: 0.5 µM DOX + 12.5 µg/mL sesquiterpene; for Effect on DOX toxicity in hepatocytes at other DOX concentrations: DOX 0.25, 1, 2 µM + sesquiterpene.
Method: as §2
Data presented as percentage of control cells (=100%) represent the mean ± S.D. from 2 independent experiments with 6 parallels in each (↑ significant increase; ↓ significant decrease).
Pure commercially available sesquiterpenes and DOX were pre-dissolved in DMSO or in pure ethanol. The concentration of organic solvent in medium was 0.1%. The cells were exposed to various concentrations of the tested compounds in culture medium. The cells cultured in medium with pure DMSO or ethanol without tested compounds were used as control samples. DMSO (10%) served as a positive control in both the primary culture of hepatocytes and of CaCo-2 cells. […] The viability of the hepatocytes was tested using a MTT assay after 24 h expositions.
as §3
For series [7], the system named is hepatocytes. Put plainly: Intracellular ROS formation (H2DCF-DA) in hepatocytes. Type of series: cell-based, rat. The settings on record: DOX 1 µM.
Source text: as §1

The mark [8] stands for this setting: CaCo-2 cells, 72 h incubation, NRU test, concentrations 0–50 µg/mL, read-out: IC50.

Regarding `C=CC(C)(O)CC/C=C(\C)CCC=C(C)C` (racemic) [NER, (±)-trans-nerolidol], the “Inhibition of cancer cell proliferation” value in series [1] (CaCo-2 cells, NRU) is “most effective; also recorded: inhibited the proliferation of CaCo-2 cancer cells”. In addition, the IC50 in series [1] (setting [8]) came out at 28.7 ± 2.5 µg/mL. Besides, the “Combined effect with DOX (combination index, CI)” value in series [2] is “significant synergistic effects with DOX”. Moreover, in series [2] (lower fraction of affected cells), the “Combined effect with DOX at lower Fa” value is “most synergistic effect on DOX”. In addition, in series [3], the “Effect on ROS formation, sesquiterpene alone” value (shortened to “Effect on ROS formation”) is listed as “strong antioxidant” and the “Effect of DOX + sesquiterpene on ROS formation compared with DOX alone” value (“Effect … compared with DOX alone” for short) was “significant antioxidant effect”. In addition, in series [4], the “Effect on intracellular DOX concentration” value was “more pronounced enhancement of DOX accumulation”. Besides, the “Hepatotoxicity / viability of hepatocytes” value (“Hepatotoxicity / viability” for short) in series [5] was “none of tested sesquiterpenes showed hepatotoxicity”. In series [6], the “Effect on DOX toxicity in hepatocytes at 0.5 µM DOX” value is recorded as “increased DOX toxicity” and the “Effect on DOX toxicity in hepatocytes at other DOX concentrations” value is “did not influence DOX toxicity”.
Regarding `C=C1CC[C@H]2O[C@]2(C)CC[C@@H]2[C@@H]1CC2(C)C` [CAO, β-caryophyllene oxide], in series [1] (CaCo-2 cells, NRU), the “Inhibition of cancer cell proliferation” value is reported as “inhibited the proliferation of CaCo-2 cancer cells”. The IC50 in series [1] (setting [8]) is greater than 50 µg/mL. The “Combined effect with DOX (combination index, CI)” value in series [2] is recorded as “significant synergistic effects with DOX”. Further, the “Combined effect with DOX at Fa > 0.8” value in series [2] (higher number of cells affected (Fa > 0.8)) is given as “strongest”. For the same compound, in series [3], the “Effect on ROS formation” value is “pro-oxidative effects” and the “Effect … compared with DOX alone” value is reported as “increase the pro-oxidative effect of DOX”. Moreover, the “Effect on intracellular DOX concentration” value in series [4] is “more pronounced enhancement of DOX accumulation”. Moreover, the “Enhancement of intracellular DOX concentration” value in series [4] (sesquiterpene 50 µg/mL, DOX 6 µM, vs DOX alone) is given as 3.6 times. Besides, in series [5], the “Hepatotoxicity / viability” value is listed as “none of tested sesquiterpenes showed hepatotoxicity; also recorded: mildly increased the viability of hepatocytes in a concentration-dependent manner”. Also, the “Effect on DOX toxicity in hepatocytes at DOX 0.25 and 2 µM” value in series [6] (DOX 0.25 and 2 µM + sesquiterpene) is listed as “significantly ameliorate DOX toxicity”.
Consider `COc1cccc2c1C(=O)c1c(O)c3c(c(O)c1C2=O)C[C@@](O)(C(=O)CO)C[C@@H]3O[C@H]1C[C@H](N)[C@H](O)[C@H](C)O1` [DOX, doxorubicin, reference compound], for which the IC50 in series [1] (CaCo-2 cells, 72-h incubation, NRU, DOX alone, read-out: IC50 (antiproliferative effect of DOX)) was 1900 nM. In addition, the figures for the “Effect of DOX alone on ROS production” value in series [3] (DOX 1 µM) and in series [7] were “increased ROS production” and “did not have a significant effect”, respectively. For the same compound, in series [5] (DOX 0.25–2 µM), the “Hepatotoxicity of DOX alone” value was “marked hepatotoxicity”.
Regarding `C/C1=C\CC/C(C)=C/CC(C)(C)/C=C/C1` [HUM, α-humulene], the “Inhibition of cancer cell proliferation” value in series [1] (CaCo-2 cells, NRU) is reported as “most effective; also recorded: inhibited the proliferation of CaCo-2 cancer cells”. In series [1] (setting [8]), the IC50 worked out at 24.4 ± 2.4 µg/mL. The “Combined effect with DOX (combination index, CI)” value in series [2] is reported as “acted rather additively”. In series [3], the “Effect on ROS formation” value is reported as “did not influence ROS formation”. Moreover, the “Hepatotoxicity / viability” value in series [5] is listed as “none of tested sesquiterpenes showed hepatotoxicity”. Moreover, the “Effect on DOX toxicity in hepatocytes” value in series [6] (DOX 0.25–2 µM + sesquiterpene 6.125–50 µg/mL) was “did not affect DOX toxicity”.
For the compound `C=C(C)[C@@H]1CCC2=CCC[C@@H](C)[C@]2(C)C1` [VAL, valencene], in series [1] (CaCo-2 cells, NRU), the “Inhibition of cancer cell proliferation” value is recorded as “inhibited the proliferation of CaCo-2 cancer cells”. Further, in series [1] (Caco-2, 72 h), it took 38.1 ± 2.4 µg/mL to reach half-maximal inhibition (IC50). Moreover, the “Combined effect with DOX (combination index, CI)” value in series [2] was “significant synergistic effects with DOX”. Moreover, in series [3], the “Effect on ROS formation” value was “pro-oxidative effects” and the “Effect … compared with DOX alone” value is listed as “increase the pro-oxidative effect of DOX”. Besides, the “Hepatotoxicity / viability” value in series [5] was “none of tested sesquiterpenes showed hepatotoxicity”. In series [6], the “Effect on DOX toxicity in hepatocytes at 0.5 µM DOX” value is on record as “increased DOX toxicity” and the “Effect on DOX toxicity in hepatocytes at other DOX concentrations” value is recorded as “did not influence DOX toxicity”.

Broadly, the IC50 is the midpoint of a concentration-inhibition curve.

The record behind these values is article PMC6331978 (Molecules, 2015).
